Tests used:
[1] = tested on: patients suffering from discoid Lupus Erythematosus; assay: Topical treatment of cutaneous manifestations in patients with discoid Lupus Erythematosus; assay type: in vivo, human; settings: patient with Discoid Lupus Erythematosus, after 3 weeks treatment
From the text: (§1) Examples 2 to 5 concern the treatment of cutaneous manifestation in patients suffering from discoid Lupus Erythematosus or subacute Lupus Erythematosus with the topical composition of Example 1 under the control of a medical doctor of Bispebjerg Hospital, Denmark. The composition was applied to affected areas once or twice per day.
A person had been suffering from discoid Lupus Erythematosus for 18 years. Their arms were somewhat affected and the fingers were severely affected with acrocyanosis. During the years, the person had regularly been treated with strong topical steroids, but with limited effect.
During an aggravation of the disease, which especially affected the fingers, the person initiated a treatment with the emulsion according to example 1 on the fingers.
A person had been suffering from discoid Lupus Erythematosus for 6 years. The symptoms started on the chin, but had spread to most of the face.
During an aggravation of the symptoms, the subject initiated a twice daily treatment with the emulsion according to example 1.
A person had been suffering from discoid Lupus Erythematosus for 32 years. The disease was very severe with a strong affection of the arms and the back and with elements spread to other parts of the body. The person had been treated with ercoquin and strong topical corticosteroids, but with limited effect. […]

[2] = tested on: patients suffering from subacute Lupus Erythematosus; assay: Topical treatment of cutaneous manifestations in patients with subacute Lupus Erythematosus; assay type: in vivo, human; settings: patient with Sub-acute Cutaneous Lupus Erythematosus, after 8 weeks of treatment
From the text: as §1
A person had been suffering from subacute Lupus Erythematosus for 16 years. The subject was affected on large areas of the body with elements on the back, the breast and the face.
The person has previously been treated with oral prednisolone, chlorochin, thalidomide and strong topical steroids, but all with limited or no effect.
During an aggravation of the symptoms, the person initiated a twice daily treatment with the emulsion according to example 1.

[3] = tested on: Albino guinea pigs of Dunkin-Hartley strain; assay: Skin sensitization test according to the Magnusson and Kligman method (O.E.C.D. Guideline No 406); assay type: in vivo, guinea pig
Procedure: Assessment of sensitising properties of R-salbutamol. Test for skin sensitization is carried out according to the Magnusson and Kligman method (J. Invest. Dermatol. 1969. 52, 268-276) and in accordance with O.E.C.D. Guideline No 406 of Jul. 17, 1992, and the test method B.6 of the 96/54 E.E.C Directive. The test item (R-salbutamol as the sulphate salt) was diluted with distilled water to prepare a concentration of 0.5% (w/v). Albino guinea pigs of Dunkin-Hartley strain were exposed to the test item after an acclimatisation period of at least five days. The Maximum Non Necrotizing Concentration (M.N.N.C.) was determined by injecting by intradermal route the following concentrations of the test item 0.25%, 0.125%, 0.0625%, 0.0312% and 0.0156% diluted in physiological saline solution. Pre-Maximum Non Irritant Concentration (pre-M.N.I.C.) was determined by application of the test item under an occlusive dressing during 24 hours, at the following concentrations: 0.5%, 0.25%, 0.125% and 0.0625% diluted in physiological saline solution. Maximum Non Irritant Concentration (M.N.I.C.) was determined by initially establishing an induction phase by intradermal injection with a physiological saline solution and by topical application of distilled water followed by a 18-day rest phase. […]

## 1-[[(1,1-Dimethylethyl)amino]methyl]-4-hydroxy-1,3-benzenedimethanol [Salbutamol]
[1]
  improvement of inflamed lesions: significant improvement
[2]
  remission of the cutaneous symptoms: complete remission

## CC(C)(C)NC[C@H](O)c1ccc(O)c(CO)c1 [R-salbutamol]
[3]; challenge phase, after removal of 24 h occlusive dressing, induction with test item at 0.5%
  macroscopic cutaneous reactions attributable to allergy: No macroscopic cutaneous reactions attributable to allergy
[3]; topical application to skin
  skin sensitization following topical application: does not confer skin sensitization

Source: US9907765B2, “Treatment of connective tissue diseases of the skin” (Cipher Pharmaceuticals, Inc., priority 2005, dated 2018)
